Measurements as given in PubChem BioAssay (NCI).
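Results reflect a 48-hour exposure of cells in 96-well plates to compound at five concentrations. At the TGI there is no net growth.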

What was measured:
Test in all cases: DTP human tumour cell line panel, 48 h
A549 NSCLC = test system: A549 NSCLC
SK-MEL-5 melanoma = test system: SK-MEL-5 melanoma
SK-MEL-2 melanoma = test system: SK-MEL-2 melanoma
DU-145 prostate = test system: DU-145 prostate
HOP-62 NSCLC = test system: HOP-62 NSCLC
UO-31 renal = test system: UO-31 renal
SW-620 colon = test system: SW-620 colon
COLO 205 colon = test system: COLO 205 colon
LOX IMVI melanoma = test system: LOX IMVI melanoma
EKVX NSCLC = test system: EKVX NSCLC
U251 CNS = test system: U251 CNS
IGROV1 ovarian = test system: IGROV1 ovarian
HOP-92 NSCLC = test system: HOP-92 NSCLC
SF-268 CNS = test system: SF-268 CNS
HCC-2998 colon = test system: HCC-2998 colon
OVCAR-3 ovarian = test system: OVCAR-3 ovarian
UACC-62 melanoma = test system: UACC-62 melanoma
MALME-3M melanoma = test system: MALME-3M melanoma
A498 renal = test system: A498 renal
NCI-H522 lung = test system: NCI-H522 lung

Structure (SMILES)	TGI (A549 NSCLC) [µM]	TGI (SK-MEL-5 melanoma) [µM]	TGI (SK-MEL-2 melanoma) [µM]	TGI (DU-145 prostate) [µM]	TGI (HOP-62 NSCLC) [µM]	TGI (UO-31 renal) [µM]	TGI (SW-620 colon) [µM]	TGI (COLO 205 colon) [µM]	TGI (LOX IMVI melanoma) [µM]	TGI (EKVX NSCLC) [µM]	TGI (U251 CNS) [µM]	TGI (IGROV1 ovarian) [µM]	TGI (HOP-92 NSCLC) [µM]	TGI (SF-268 CNS) [µM]	TGI (HCC-2998 colon) [µM]	TGI (OVCAR-3 ovarian) [µM]	TGI (UACC-62 melanoma) [µM]	TGI (MALME-3M melanoma) [µM]	TGI (A498 renal) [µM]	TGI (NCI-H522 lung) [µM]
CCCCNC(=O)OCCN=c1c2ccccc2ccc2ccccc12	> 100	> 100	> 100	> 100	> 100	> 100	> 100	> 100	> 100	> 100	> 100	> 100	> 100	> 100	> 100	> 100	> 100	> 100		
N#CC(C#N)=c1c(=O)c2c3ccccc3cc3cccc1c32	> 100	> 100	> 100	> 100	> 100		> 100	> 100	> 100		> 100	> 100	> 100	> 100	> 100	> 100	> 100		> 100	
CCOC(=O)CC1=N/C(=N/C(=N)N[N+](=O)[O-])SC1	> 100	> 100	> 100		> 100	> 100	> 100	> 100	> 100	> 100	> 100	> 100	> 100	> 100	> 100	> 100	> 100	> 100	> 100	> 100
Nc1ccccc1N	> 100	> 100	> 100		> 100	> 100	> 100	> 100	> 100		> 100	> 100	> 100	> 100	> 100	> 100	> 100	> 100	> 100	47.5
CCOc1ccc(/C=C2\N=C(c3ccccc3)OC2=O)cc1	> 100	> 100	> 100		> 100	> 100	> 100			> 100	> 100	> 100	> 100	> 100	> 100	> 100	> 100			> 100
CC(=O)OCC1OC(n2c3c(c(-c4ccc(C)cc4)c(C#N)c2=S)C(=O)CC(C)(C)C3)C(OC(C)=O)C(OC(C)=O)C1OC(C)=O (stereo unspecified)	> 100	> 100		> 100	> 100	> 100	> 100	> 100	26.2		> 100	> 100	> 100	94.9		> 100	44.4	> 100	> 100	> 100
CC(NCc1c(O)ccc2c(-c3ccccc3)cc(=O)oc12)C(=O)O (stereo unspecified)	> 100	> 100	> 100	> 100	> 100	> 100	> 100	> 100	> 100	> 100	> 100	> 100	> 100	> 100	> 100	> 100	> 100	> 100		> 100
COc1cccc2c1C(=O)c1c(O)c3c(c(O)c1C2=O)C[C@@](O)(C(=O)CO)CC3OC1CC(N(C)CCOCC(OC(C)=O)OC(C)=O)C(O)C(C)O1 (stereo partly specified)	> 0.01	> 0.01	> 0.01		> 0.01	> 0.01	> 0.01		> 0.01	> 0.01	> 0.01	> 0.01	> 0.01	> 0.01	> 0.01	> 0.01	> 0.01	> 0.01		> 0.01
COc1cc2nc(-c3cccs3)nc(Nc3cccc([N+](=O)[O-])c3)c2cc1OC	53.8	> 100	39.8	30	36.1	43.9	50.7	54.1	45.7	33.1	32.4	32.2		43.6		36.6	31.1	35.2	> 100	38.1
C[N+]1(C)C2CC(OC(=O)C(CO)c3ccccc3)CC1C1OC12 (stereo unspecified)	> 100	> 100	> 100	> 100	> 100	> 100	> 100	> 100	> 100	> 100	> 100	> 100				> 100	> 100	> 100	> 100	> 100
CN1C2CCC1/C(=C/c1cccc3c1OCO3)C(=O)/C2=C\c1cccc2c1OCO2		> 100	> 100		41.2	> 100	> 100	> 100	> 100	> 100	63.4	> 100	98.7	> 100	> 100	> 100	91.4	> 100		
COc1cc([C@@H]2c3cc4c(cc3[C@H](OC3OC5COC(c6ccco6)OC5C(O)C3O)C3COC(=O)[C@@H]32)OCO4)cc(OC)c1OC (stereo partly specified)	> 100	> 72.4	> 69.8	> 100	> 100	> 100	> 100	> 31.3	> 100		> 100	> 52.7	> 100	> 100	> 100	> 24.6	> 100	> 100		> 57.3
COc1ccc(N2C(=O)c3cc([N+](=O)[O-])cnc3S2(=O)=O)cc1	> 100		> 100	> 100	> 100	> 100	> 100	> 100	> 100	> 100	> 100	> 100	> 100	> 100	> 100	> 100	> 100	> 100		> 100
